Measurements published in US9365588B2, “Benzoxazines as modulators of ion channels” (Vertex Pharmaceuticals Incorporated, priority 2011, dated 2016).

Molecular target: human NaV 1.7 (Homo sapiens, UniProt Q15858)
Experiment: E-VIPR optical membrane potential assay with electrical stimulation
Assay type: cell-based
Settings: sodium channel inhibition; read-out: Binned Activity Data (IC50)
Summary of the method: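 Membrane-potential read-out: background-subtracted 460 nm/580 nm ratio during a 9 s current-controlled stimulus, 400 Hz scan. Before stimulation, NaV1.7-HEK cells carried coumarin/oxonol dye and compound (final DMSO 0.625%) for 20–35 min at room temperature; tetracaine 125 μM served as positive control.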

Chain of human NaV 1.7 (Q15858 whole entry): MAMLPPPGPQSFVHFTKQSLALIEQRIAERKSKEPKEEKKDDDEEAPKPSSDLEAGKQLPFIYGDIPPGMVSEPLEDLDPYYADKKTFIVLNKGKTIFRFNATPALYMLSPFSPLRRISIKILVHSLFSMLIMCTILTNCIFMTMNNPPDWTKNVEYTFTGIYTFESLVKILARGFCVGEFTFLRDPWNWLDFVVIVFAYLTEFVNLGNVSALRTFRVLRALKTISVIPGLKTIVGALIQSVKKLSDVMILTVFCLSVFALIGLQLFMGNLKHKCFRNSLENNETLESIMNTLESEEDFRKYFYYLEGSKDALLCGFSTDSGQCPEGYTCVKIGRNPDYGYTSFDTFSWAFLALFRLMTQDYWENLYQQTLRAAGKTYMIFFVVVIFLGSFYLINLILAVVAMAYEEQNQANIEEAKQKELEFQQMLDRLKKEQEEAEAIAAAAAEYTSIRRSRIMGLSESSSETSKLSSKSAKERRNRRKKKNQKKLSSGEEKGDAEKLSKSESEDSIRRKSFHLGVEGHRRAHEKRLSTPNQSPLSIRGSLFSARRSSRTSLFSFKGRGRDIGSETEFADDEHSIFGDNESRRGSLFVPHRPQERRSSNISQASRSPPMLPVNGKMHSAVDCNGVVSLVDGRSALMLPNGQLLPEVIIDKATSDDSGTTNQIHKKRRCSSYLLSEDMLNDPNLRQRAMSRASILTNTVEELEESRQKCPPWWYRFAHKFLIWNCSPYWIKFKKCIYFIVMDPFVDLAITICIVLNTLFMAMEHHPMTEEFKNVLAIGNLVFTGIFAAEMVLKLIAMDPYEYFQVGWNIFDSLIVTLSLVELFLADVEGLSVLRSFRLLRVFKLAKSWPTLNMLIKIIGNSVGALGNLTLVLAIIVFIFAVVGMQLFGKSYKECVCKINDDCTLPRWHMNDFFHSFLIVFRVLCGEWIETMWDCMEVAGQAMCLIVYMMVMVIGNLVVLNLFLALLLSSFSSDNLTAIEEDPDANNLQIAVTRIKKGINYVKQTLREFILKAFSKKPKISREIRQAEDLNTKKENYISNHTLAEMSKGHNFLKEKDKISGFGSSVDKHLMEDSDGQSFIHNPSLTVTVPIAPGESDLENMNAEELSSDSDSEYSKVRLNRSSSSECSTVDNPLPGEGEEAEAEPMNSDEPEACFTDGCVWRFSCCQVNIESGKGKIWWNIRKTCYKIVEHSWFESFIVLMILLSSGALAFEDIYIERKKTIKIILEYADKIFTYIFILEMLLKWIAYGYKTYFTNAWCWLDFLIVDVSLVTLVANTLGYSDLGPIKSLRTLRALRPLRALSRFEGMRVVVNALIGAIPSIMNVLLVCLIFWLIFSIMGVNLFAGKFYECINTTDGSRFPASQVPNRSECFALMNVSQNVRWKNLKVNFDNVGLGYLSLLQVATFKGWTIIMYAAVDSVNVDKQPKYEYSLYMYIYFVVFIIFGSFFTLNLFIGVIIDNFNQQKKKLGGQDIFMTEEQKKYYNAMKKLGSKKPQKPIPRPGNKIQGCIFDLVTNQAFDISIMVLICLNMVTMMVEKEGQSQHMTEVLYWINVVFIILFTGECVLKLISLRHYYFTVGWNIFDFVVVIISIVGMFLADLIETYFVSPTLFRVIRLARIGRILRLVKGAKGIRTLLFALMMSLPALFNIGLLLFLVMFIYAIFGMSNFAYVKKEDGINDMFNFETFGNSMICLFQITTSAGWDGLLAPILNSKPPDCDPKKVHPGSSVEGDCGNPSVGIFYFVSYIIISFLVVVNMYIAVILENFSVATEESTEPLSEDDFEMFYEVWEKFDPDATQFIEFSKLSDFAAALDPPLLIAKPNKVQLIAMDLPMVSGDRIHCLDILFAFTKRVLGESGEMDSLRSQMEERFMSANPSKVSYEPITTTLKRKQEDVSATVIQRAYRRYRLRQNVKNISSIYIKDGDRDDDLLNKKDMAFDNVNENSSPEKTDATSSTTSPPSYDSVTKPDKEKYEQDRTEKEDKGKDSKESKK

SMILES	IC50
Cc1cc(C(=O)N2CCC3(CC2)Oc2ccccc2-n2c(C)ccc23)ccc1OC(C)C [Compound 359]	≤ 2 µM
CC(=O)c1ccc2n1-c1ccccc1OC21CCN(C(=O)c2ccccc2OC(F)F)CC1 [Compound 360]	≤ 2 µM
CCCOc1ccc(C(=O)N2CCC3(CC2)Oc2ccccc2-n2cccc23)cc1C#N [Compound 361]	≤ 2 µM
COc1cc(C(=O)N2CCC3(CC2)Oc2ccccc2-c2c3cnn2C)ccc1OCCC(C)C [Compound 362]	≤ 2 µM
Cc1cc(C(=O)N2CCC3(CC2)Oc2ccccc2-n2c(C#N)ccc23)ccc1S(=O)(=O)C(C)C [Compound 363]	≤ 2 µM
CC(C)(O)c1ccc(C(=O)N2CCC3(CC2)Oc2ccccc2-n2c(C#N)ccc23)cc1CO [Compound 364]	≤ 2 µM
COc1cc(C(=O)N2CCC3(CC2)Oc2cc(Cl)ccc2-n2cccc23)ccc1OC1CCC(O)C1 (stereo not shown) [Compound 366]	≤ 2 µM
O=C(c1cccc(C(F)(F)F)c1)N1CCC2(CC1)Oc1cc(Cl)ccc1-n1cccc12 [Compound 367]	≤ 2 µM
Cn1ncc2c1-c1ccccc1OC21CCN(C(=O)c2ccc3c(c2)C(C)(C)CO3)CC1 [Compound 369]	≤ 2 µM
Cc1cc(C(=O)N2CCC3(CC2)Oc2cc(Cl)ccc2-c2c3cnn2C)ccc1OC(C)C [Compound 370]	≤ 2 µM
CCn1ncc2c1-c1ccccc1OC21CCN(C(=O)c2ccc(C(C)(C)C)c(OC)c2)CC1 [Compound 372]	≤ 2 µM
COc1cc(C(=O)N2CCC3(CC2)Oc2cc(Cl)ccc2-n2cccc23)ccc1OCC(N)=O [Compound 373]	≤ 2 µM
Cc1ccc2c(c1)OC1(CCN(C(=O)c3ccc(OC(C)C)c(CO)c3)CC1)c1ccc(C#N)n1-2 [Compound 375]	≤ 2 µM
CC(C)Oc1ccc(C(=O)N2CCC3(CC2)Oc2ccccc2-n2cccc23)cc1C(F)(F)F [Compound 376]	≤ 2 µM
CCc1ccc(C(=O)N2CCC3(CC2)Oc2cc(F)ccc2-n2cccc23)cc1C [Compound 377]	≤ 2 µM
COc1cc(C(=O)N2CCC3(CC2)Oc2cc(F)ccc2-n2cccc23)ccc1OCC(C)(C)OC [Compound 378]	≤ 2 µM
CC(=O)c1ccc2n1-c1ccccc1OC21CCN(C(=O)c2ccc(C(C)(C)O)cc2)CC1 [Compound 379]	≤ 2 µM
Cn1ncc2c1-c1ccccc1OC21CCN(C(=O)c2ccccc2OC(F)F)CC1 [Compound 381]	≤ 2 µM
Cn1ncc2c1-c1cc(F)ccc1OC21CCN(C(=O)c2ccccc2OC(F)(F)F)CC1 [Compound 382]	≤ 2 µM
COc1ccccc1C(=O)N1CCC2(CC1)Oc1ccc(F)cc1-c1c2cnn1C [Compound 383]	≤ 2 µM
COc1cnccc1C(=O)N1CCC2(CC1)Oc1ccccc1-c1c2cnn1C [Compound 384]	> 5 µM
CCCOc1ccc(C(=O)N2CCC3(CC2)Oc2ccccc2-c2c3cnn2C)cc1C(F)(F)F [Compound 387]	≤ 2 µM
Cn1cc2c(n1)-c1ccccc1OC21CCN(C(=O)c2cccc(F)c2OC(F)F)CC1 [Compound 388]	≤ 2 µM
COCCOc1ccc(C(=O)N2CCC3(CC2)Oc2ccccc2-c2c3cnn2CC(F)(F)F)cc1OC [Compound 391]	2 to 5 µM
COc1ccc(C(=O)N2CCC3(CC2)Oc2cc(Cl)ccc2-n2c(C#N)ccc23)cc1C(F)(F)F [Compound 392]	≤ 2 µM
Cc1nc2cccc(C(=O)N3CCC4(CC3)Oc3cc(Cl)ccc3-n3cccc34)c2o1 [Compound 393]	≤ 2 µM
CCc1ccc(C(=O)N2CCC3(CC2)Oc2ccccc2-n2cc(C)cc23)cc1OC [Compound 395]	≤ 2 µM
COc1cc(C(=O)N2CCC3(CC2)Oc2ccccc2-c2c3cnn2C)ccc1O [Compound 396]	≤ 2 µM

SMILES	IC50
COc1cc(C(=O)N2CCC3(CC2)Oc2ccccc2-n2c(C#N)ccc23)ccc1OC[C@H](O)CO [Compound 398]	2 to 5 µM
COc1cc(C(=O)N2CCC3(CC2)Oc2ccccc2-n2cccc23)ccc1C(C)(C)OC [Compound 399]	≤ 2 µM
N#Cc1ccc2n1-c1ccccc1OC21CCN(C(=O)c2ccccc2C(F)F)CC1 [Compound 401]	≤ 2 µM
CC(C)(C)S(=O)(=O)c1ccc(C(=O)N2CCC3(CC2)Oc2ccccc2-n2c3ccc2S(C)(=O)=O)cc1 [Compound 404]	≤ 2 µM
Cn1ccc(C(=O)N2CCC3(CC2)Oc2ccccc2-n2cccc23)cc1=O [Compound 405]	> 5 µM
C[C@@](O)(CO)c1ccc(C(=O)N2CCC3(CC2)Oc2ccccc2-n2c(C#N)ccc23)cc1 [Compound 406]	≤ 2 µM
COc1cc(C(=O)N2CCC3(CC2)Oc2cc(Cl)ccc2-n2cccc23)ccc1OC[C@H](C)OC [Compound 407]	≤ 2 µM
Cc1cc(C(=O)N2CCC3(CC2)Oc2ccccc2-n2c(C#N)ccc23)ccc1OC(C)(C)C(=O)O [Compound 408]	2 to 5 µM
O=C(c1ccccc1OC(F)F)N1CCC2(CC1)Oc1ccccc1-c1[nH]ncc12 [Compound 409]	> 5 µM
CCn1ncc2c1-c1ccccc1OC21CCN(C(=O)c2ccc(OC(C)C)c(C)c2)CC1 [Compound 410]	≤ 2 µM
CN(C)CCOc1ccc(C(=O)N2CCC3(CC2)Oc2cc(F)ccc2-n2cccc23)cc1C(F)(F)F [Compound 411]	> 5 µM
Cc1cc(C(=O)N2CCC3(CC2)Oc2ccccc2-n2c(C(F)(F)F)ccc23)ccc1S(=O)(=O)N(C)C [Compound 413]	≤ 2 µM
Cc1cc(C(=O)N2CCC3(CC2)Oc2cccnc2-c2c3cnn2C)ccc1OC(C)C [Compound 414]	≤ 2 µM
Cc1cc(C(=O)N2CCC3(CC2)Oc2ccccc2-n2cccc23)ccc1OC(C)C [Compound 415]	≤ 2 µM
Cc1cc(C(=O)N2CCC3(CC2)Oc2cccc(F)c2-n2c(C#N)ccc23)ccc1OC(C)C [Compound 416]	≤ 2 µM
COc1cc(C(=O)N2CCC3(CC2)Oc2cc(Cl)ccc2-n2cccc23)ccc1C(C)(C)CO [Compound 417]	≤ 2 µM
Cn1ncc2c1-c1ccccc1OC21CCN(C(=O)c2ccc(C3(O)COC3)cc2)CC1 [Compound 418]	2 to 5 µM
CC(C)(C)c1ccc(C(=O)N2CCC3(CC2)Oc2ccccc2-n2cccc23)cc1C#N [Compound 419]	≤ 2 µM
COCCOc1ccc(C(=O)N2CCC3(CC2)Oc2ccccc2-c2c3cnn2C)cc1OC [Compound 420]	≤ 2 µM
Cn1ncc2c1-c1ccccc1OC21CCN(C(=O)c2ccc3c(c2)OC(C)(C)C3)CC1 [Compound 422]	2 to 5 µM
CC(C)CS(=O)(=O)c1ccc(C(=O)N2CCC3(CC2)Oc2ccccc2-c2c3cnn2C)cc1 [Compound 423]	≤ 2 µM
CC(C)(O)c1ccc(C(=O)N2CCC3(CC2)Oc2ccccc2-n2c(C(F)(F)F)ccc23)cc1F [Compound 424]	≤ 2 µM
Cn1cc2c(n1)-c1ccccc1OC21CCN(C(=O)c2ccc(C(C)(C)O)c(CO)c2)CC1 [Compound 425]	> 5 µM
Cc1cc(S(=O)(=O)C(C)C)ccc1C(=O)N1CCC2(CC1)Oc1ccccc1-n1c(C#N)ccc12 [Compound 426]	≤ 2 µM
COc1cc(C(=O)N2CCC3(CC2)Oc2ccccc2-c2c3cnn2C)ccc1O[C@@H]1CCOC1 [Compound 427]	≤ 2 µM
COc1cc(C(=O)N2CCC3(CC2)Oc2ccccc2-c2c3cnn2C)ccc1C(C)(C)C [Compound 429]	≤ 2 µM
CC(C)Oc1ccccc1C(=O)N1CCC2(CC1)Oc1ccccc1-c1c2cnn1C [Compound 430]	≤ 2 µM
